Assay results taken from patent US11236106B2, “Cycloalkane-1,3-diamine derivative” (Daiichi Sankyo Company, Limited, priority 2018, dated 2022).
Where a name gives a salt, the structure may show the parent alone. Read-outs that look alike come from different tables or passages of the source.

Target: T1, menin and MLL (menin, Flag tagged; biotinylated MLL1 peptide 1-46aa) (Homo sapiens, UniProt O00255)
T1 sequence (O00255 1-610): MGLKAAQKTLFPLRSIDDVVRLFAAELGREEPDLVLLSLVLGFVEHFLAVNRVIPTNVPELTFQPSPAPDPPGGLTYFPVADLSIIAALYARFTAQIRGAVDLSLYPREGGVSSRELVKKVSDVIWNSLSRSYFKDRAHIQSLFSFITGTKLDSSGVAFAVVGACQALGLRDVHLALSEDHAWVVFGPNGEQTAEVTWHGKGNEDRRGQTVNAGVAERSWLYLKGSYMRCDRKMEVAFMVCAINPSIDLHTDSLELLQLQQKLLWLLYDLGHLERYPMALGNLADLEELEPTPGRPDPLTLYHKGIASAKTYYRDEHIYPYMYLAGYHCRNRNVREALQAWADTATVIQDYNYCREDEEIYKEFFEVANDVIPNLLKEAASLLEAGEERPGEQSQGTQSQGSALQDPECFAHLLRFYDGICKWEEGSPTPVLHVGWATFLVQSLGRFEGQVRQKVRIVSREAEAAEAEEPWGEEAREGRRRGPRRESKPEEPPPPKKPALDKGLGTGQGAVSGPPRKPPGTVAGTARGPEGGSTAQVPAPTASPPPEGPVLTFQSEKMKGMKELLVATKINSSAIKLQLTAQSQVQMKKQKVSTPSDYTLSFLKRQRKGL
Assay: biochemical

[1] = IC50, binding inhibitory activity between menin and MLL, AlphaLISA, 1 nM menin, 10 nM biotinylated MLL1 peptide

Protocol: Then, the fluorescence signal by AlphaLISA (registered trademark, PerkinElmer Co., Ltd.) was measured using a plate reader (PerkinElmer Co., Ltd., EnVisionXcite).

| Structure (SMILES) | IC50 [1] | IC50 |
| --- | --- | --- |
| CNc1nc(N(C)[C@H]2C[C@@H](NCc3ccc(-c4cc(F)c(F)c(OC)c4)cc3)C[C@H]2O)c2cc(CC(F)(F)F)sc2n1 [Example 82, (1R,2S,4R)-4-{[(3′,4′-difluoro-5′-methoxy[1,1′-biphenyl]-4-yl)methyl]amino}-2-{methyl[2-(methylamino)-6-(2,2,2-trifluoroethyl)thieno[2,3-d]pyrimidin-4-yl]amino}cyclopentan-1-ol hydrochloride] | 22.8 nM |  |
| CN(c1ncnc2sc(CC(F)(F)F)cc12)[C@H]1C[C@@H](NCc2ccc(-c3cncc4ccccc34)cc2)C[C@H]1O [Example 83, (1R,2S,4R)-4-({[4-(isoquinolin-4-yl)phenyl]methyl}amino)-2-{methyl[6-(2,2,2-trifluoroethyl)thieno[2,3-d]pyrimidin-4-yl]amino}cyclopentan-1-ol hydrochloride] | 4.9 nM |  |
| COc1cc(-c2ccc(CN[C@H]3C[C@@H](O)[C@@H](N(C)c4ncnc5sc(CC(F)(F)F)cc45)C3)cc2)nnc1Cl [Example 84, (1R,2S,4R)-4-({[4-(6-chloro-5-methoxypyridazin-3-yl)phenyl]methyl}amino)-2-{methyl[6-(2,2,2-trifluoroethyl)thieno[2,3-d]pyrimidin-4-yl]amino}cyclopentan-1-ol hydrochloride] | 2.7 nM |  |
| CN(c1ncnc2sc(CC(F)(F)F)cc12)[C@H]1C[C@@H](NCc2ccc(-c3cc(F)cc4c3cnn4S(C)(=O)=O)cc2)C[C@H]1O [Example 85, (1R,2S,4R)-4-[({4-[6-fluoro-1-(methanesulfonyl)-1H-indazol-4-yl]phenyl}methyl)amino]-2-{methyl[6-(2,2,2-trifluoroethyl)thieno[2,3-d]pyrimidin-4-yl]amino}cyclopentan-1-ol hydrochloride] | 4 nM |  |
| CN(c1ncnc2sc(CC(F)(F)F)cc12)[C@H]1C[C@@H](NCc2ccc(-c3cccc(CS(C)(=O)=O)c3)cc2)C[C@H]1O [Example 86, (1R,2S,4R)-4-[({3′-[(methanesulfonyl)methyl][1,1′biphenyl]-4-yl}methyl)amino]-2-{methyl[6-(2,2,2 trifluoroethyl)thieno[2,3-d]pyrimidin-4-yl]amino}cyclopentan-1-ol hydrochloride] | 20.9 nM |  |
| CNc1nc(N(C)[C@H]2C[C@@H](NCc3ccc(-c4ccc(F)c(OC)c4F)cc3)C[C@H]2O)c2cc(CC(F)(F)F)sc2n1 [Example 87, (1R,2S,4R)-4-{[(2′,4′-difluoro-3′-methoxy[1,1′-biphenyl]-4-yl)methyl]amino}-2-{methyl[2-(methylamino)-6-(2,2,2-trifluoroethyl)thieno[2,3-d]pyrimidin-4-yl]amino}cyclopentan-1-ol hydrochloride] | 6.6 nM |  |
| COc1cc(-c2ccc(CN[C@H]3C[C@@H](O)[C@@H](N(C)c4ncnc5sc(CC(F)(F)F)cc45)C3)cc2)cnc1C(F)(F)F [Example 88, (1R,2S,4R)-4-[({4-[5-methoxy-6-(trifluoromethyl)pyridin-3-yl]phenyl}methyl)amino]-2-{methyl[6-(2,2,2-trifluoroethyl)thieno[2,3-d]pyrimidin-4-yl]amino}cyclopentan-1-ol hydrochloride] | 27.8 nM |  |
| COc1cc(-c2ccc(CN[C@H]3C[C@@H](O)[C@@H](N(C)c4ncncc4Oc4ccc(F)cc4C(=O)N(C(C)C)C(C)C)C3)cc2)nnc1OC [Example 89, 2-[(4-{[(1S,2R,4R)-4({[4-(5,6-dimethoxypyridazin-3-yl)phenyl]methyl}amino)-2-hydroxycyclopentyl](methyl)amino}pyrimidin-5-yl)oxy]-5-fluoro-N,N-di(propan-2-yl)benzamide hydrochloride] | 5.6 nM |  |
| COc1nc(N(C)[C@H]2C[C@@H](NCc3ccc(-c4cc(OC)c(Cl)nn4)cc3)C[C@H]2O)c2cc(CC(F)(F)F)sc2n1 [Example 90, (1R,2S,4R)-4-({[4-(6-chloro-5methoxypyridazin-3-yl)phenyl]methyl}amino)-2-{[2-methoxy-6-(2,2,2-trifluoroethyl)thieno[2,3-d]pyrimidin-4-yl](methyl)amino}cyclopentan1-ol hydrochloride] |  | 1.2 nM |
| COc1nc(N(C)[C@H]2C[C@@H](NCc3ccc(-c4cnc(F)c(OC)c4)cc3)C[C@H]2O)c2cc(CC(F)(F)F)sc2n1 [Example 91, (1R,2S,4R)-4-({[4-(6-fluoro-5-methoxypyridin-3yl)phenyl]methyl}amino)-2{[2-methoxy6-(2,2,2-trifluoroethyl)thieno[2,3-d]pyrimidin-4-yl](methyl)amino}cyclopentan-1-ol hydrochloride] | 1.3 nM |  |
| CNc1ncc(-c2ccc(CN[C@H]3C[C@@H](O)[C@@H](N(C)c4ncnc5sc(CC(F)(F)F)cc45)C3)cc2)cc1OC [Example 92, (1R,2S,4R)-4-[({4-[5-methoxy-6-(methylamino)pyridin-3-yl]phenyl}methyl)amino]-2-{methyl[6-(2,2,2-trifluoroethyl)thieno[2,3-d]pyrimidin-4-yl]amino}cyclopentan-1-ol hydrochloride] | 1.5 nM |  |
| COc1nc(N(C)[C@H]2C[C@@H](NCc3ccc(-c4cnc(S(C)(=O)=O)c(OC)c4)cc3)C[C@H]2O)c2cc(CC(F)(F)F)sc2n1 [Example 94, (1R,2S,4R)-4-[({4-[6-(methanesulfonyl)-5-methoxypyridin-3-yl]phenyl}methyl)amino]-2-{[2-methoxy-6-(2,2,2-trifluoroethyl)thieno[2,3-d]pyrimidin-4-yl](methyl)amino}cyclopentan-1-ol hydrochloride] | 2.1 nM |  |
| COc1cc(-c2ccc(CN[C@H]3CC[C@@H](N(C)c4ncnc5sc(CC(F)(F)F)cc45)C3)cc2)nnc1OC [Example 95, (1R,3S)-N^3-{[4-(5,6-dimethoxypyridazin-3-yl)phenyl]methyl}-N^1-methyl-N^1-[6-(2,2,2-(trifluoroethyl)thieno[2,3-d]pyrimidin-4-yl]cyclopentane-1,3-diamine hydrochloride] | 1.2 nM |  |
| COc1ncc(-c2ccc(CN[C@H]3C[C@@H](O)[C@@H](N(C)c4ncnc5sc(CC(F)(F)F)cc45)C3)cc2)nc1OC [Example 96, (1R,2S,4R)-4-({[4-(5,6-dimethoxypyrazin-2-yl)phenyl]methyl}amino)-2-{methyl[6-(2,2,2-trifluoroethyl)thieno[2,3-d]pyrimidin-4-yl]amino}cyclopentan-1-ol hydrochloride] |  | 2.7 nM |
| COc1cnc(-c2ccc(CN[C@H]3C[C@@H](O)[C@@H](N(C)c4ncnc5sc(CC(F)(F)F)cc45)C3)cc2)nc1OC [Example 97, (1R,2S,4R)-4-({[4-(4,5-dimethoxypyrimidin-2-yl)phenyl]methyl}amino)-2-{methyl[6-(2,2,2-trifluoroethyl)thieno[2,3-d]pyrimidin-4-yl]amino}cyclopentan-1-ol hydrochloride] | 3.9 nM |  |
| COc1cc(-c2ccc(CN[C@H]3C[C@@H](O)[C@@H](N(C)c4ncnc5sc(CC(F)(F)F)cc45)C3)cc2)nnc1N(C)C [Example 98, (1R,2S,4R)-4-[({4-[6-(dimethylamino)-5-methoxypyridazin-3-yl]phenyl}methyl)amino]-2-{methyl[6-(2,2,2-trifluoroethyl)thieno[2,3-d]pyrimidin-4-yl]amino}cyclopentan-1-ol hydrochloride] | 1.9 nM |  |
| COc1cc(-c2ccc(CN[C@H]3C[C@@H](O)[C@@H](N(C)c4ncnc5sc(CC(F)(F)F)cc45)C3)cc2)nnc1C#N [Example 99, 6-[4-({[(1R,3R,4S)-3-hydroxy-4-{methyl[6-(2,2,2-trifluoroethyl)thieno[2,3-d]pyrimidin-4-yl]amino}cyclopentyl]amino}methyl)phenyl]-4-methoxypyridazine-3-carbonitrile hydrochloride] | 1.1 nM |  |
| COc1cc(-c2ccc(CN[C@H]3C[C@@H](O)[C@@H](N(C)c4ncncc4Oc4ccc(F)cc4-c4cncnc4C(C)C)C3)cc2)nnc1OC [Example 100, (1R,2S,4R)-4-({[4-(5,6-dimethoxypyridazin-3-yl)phenyl]methyl}amino)-2-[(5-{4-fluoro-2-[4-(propan-2-yl)pyrimidin-5-yl]phenoxy}pyrimidin-4-yl)(methyl)amino]cyclopentan-1-ol hydrochloride] | 2.5 nM |  |
| COc1cc(-c2ccc(CN[C@H]3C[C@@H](O)[C@@H](N(C)c4ncncc4Oc4ccc(F)cc4-c4ccccc4C(C)C)C3)cc2)nnc1OC [Example 101, (1R,2S,4R)-4-({[4-(5,6-dimethoxypyridazin-3-yl)phenyl]methyl}amino)-2-[(5-{[5-fluoro-2′-(propan-2-yl)[1,1′-biphenyl]-2-yl]oxy}pyrimidin-4-yl)(methyl)amino]cyclopentan-1-ol hydrochloride] | 2.7 nM |  |
| COc1cc(-c2ccc(CN[C@H]3C[C@@H](O)[C@@H](N(C)c4ncncc4Oc4ccc(F)cc4-c4ccnn4C(C)C)C3)cc2)nnc1OC [Example 102, (1R,2S,4R)-4-({[4-(5,6-dimethoxypyridazin-3-yl)phenyl]methyl}amino)-2-[(5-{4-fluoro-2-[1-(propan-2-yl)-1H-pyrazol-5-yl]phenoxy}pyrimidin-4-yl)(methyl)amino]cyclopentan-1-ol hydrochloride] | 2.7 nM |  |
